Experimental data published in patent US11718635B2, “Iron bis(imino) aryl catalysts and methods thereof” (ExxonMobil Chemical Patents Inc., priority 2019, dated 2023).

Assay: Solubility tests in anhydrous hexane (stirred 30 minutes at room temperature, filtered, solvent removed)
Type: physicochemical
Procedure: (§1) This solution was stirred for 30 minutes at room temperature. The contents were then filtered through a buchner filter funnel with a frit having a 4-5.5 micron size. The solvent was then removed en vacuo.
as §1

Molecule	calculated solubility (anhydrous hexane, stirred 30 minutes at room temperature, filtered through 4-5.5 micron frit) [g/g hexane]	solubility in hydrophobic (nonpolar) solvents compared to the Comparative Catalyst
CC(=Nc1c(C)cc(C)cc1Cl)c1cccc(C(C)=Nc2c(C)cc(C)cc2Cl)n1.[Cl][Fe][Cl] [2,6-bis-[1-(2-chloro-4,6-dimethylphenylimino)ethyl]pyridine iron dichloride]	0.0	
(E)-N-(2-chloro-4,6-dimethylphenyl)-1-(6-((E)-1-(mesitylimino)ethyl)pyridin-2-yl)ethan-1-imine iron-silylneopentyl [Catalyst 1]		significantly improved solubility
